Data: US20250236596A1, “HYDROXYLAMINE-BASED EGFR INHIBITORS FOR TREATMENT OF CANCER WITH BRAIN METASTASES” (University of Georgia Research Foundation, Inc., priority 2022, published 2025)

What was measured:
CYP3A4 = CYP3A4 (Homo sapiens, UniProt P08684); assay: Human CYP450 inhibition in human liver microsomes, CYP3A4; assay type: in vitro ADME; conditions: pooled human liver microsomes, probe midazolam (1 μM), 1′-hydroxylation
Description: Assessment of compound 15 was carried out at Pharmaron Inc. for its potential to inhibit cytochrome P450 (CYP) isoforms using human liver microsomes. The activities tested were CYP1A2-mediated phenacetin O-demethylation, CYP2C19-mediated (S)-mephenytoin 4′-hydroxylation, CYP2C9-mediated diclofenac 4′-hydroxylation, CYP2D6-mediated dextromethorphan O-demethylation and CYP3A4-mediated midazolam 1′-hydroxylation. Concentrations of substrates were phenacetin (40 μM), mephenytoin (50 μM), diclofenac (6 μM), dextromethorphan (2 μM) and midazolam (1 μM). Probe substrates phenacetin, mephenytoin and dextromethorphan were incubated at 37° for 20 min. Probe substrates diclofenac and midazolam were incubated at 37° for 5 min. […] The reactions were initiated by adding NADPH (1 mM final concentration) after a 5 min-preincubation and the assay was ran in duplicate (n=2). Samples were analyzed by UPLC-MS/MS.

[1] = Pharmacokinetics in SD rats (IV and PO); assay type: in vivo; conditions: SD rats at the tested doses
Description: (§1) Animal experiments were performed at Pharmaron Inc. and animal use was approved by Pharmaron's Institutional Animal Care and Use Committee (IACUC) in Pharmaron (Pharmaron IACUC, Protocol #PK-M-07182022, #PK-R-06012022 and #ON-CELL-XEN-06012022) following the guidance of AAALAC. Six- to eight-week-old male SD rats (approximately 200-300 g) obtained from Si Bei Fu Laboratory Animal Technology Co., six- to eight-week-old male CD1 mice (approximately 20-30 g) obtained from Si Bei Fu Laboratory Animal Technology Co., and six- to eight-week-old female BALB/c nude mice (approximately 20-30 g) obtained from Si Bei Fu Laboratory Animal Technology Co., were used in the pharmacokinetic studies. Six- to eight-week-old female BALB/c nude mice (approximately 18-22 g) obtained from Beijing Anikeeper Biotech Co., Ltd were used in the intracranial PDX study. […]
Approximately 0.03 mL of blood was collected from the dorsal metatarsal vein (in the case of CD1 mice), 0.03 mL of blood from the orbit vein (in the case of BALB/c nude mice) or 0.2 mL of blood from the jugular vein (in the case of SD rats) at each time point. […] Concentrations of test articles in the plasma samples were determined using LC-MS/MS and WinNonlin 8.3 (Phoenix™) was used for pharmacokinetic calculations. […]

[2] = Oral CNS pharmacokinetics in SD rats; assay type: in vivo; conditions: male, rat, brain and plasma, single oral dose 20 mg/kg, read-out: Kp,uu (unbound brain-to-unbound plasma partitioning coefficient) (AUCinf)
Description: as §1
Oral CNS pharmacokinetic assessment of 15 was done by oral gavage (formulation: 1% methylcellulose) followed by blood and brain sampling at 7 time points (0.25, 0.5, 1, 2, 4, 8, 24 h post dose) with n=3 animals per time point (n=21 total). […] Concentrations of 15 in the plasma and brain samples were determined using LC-MS/MS and WinNonlin 8.3 (Phoenix™) was used for pharmacokinetic calculations. […]

CYP3A4, sequence (P08684 whole entry, canonical isoform): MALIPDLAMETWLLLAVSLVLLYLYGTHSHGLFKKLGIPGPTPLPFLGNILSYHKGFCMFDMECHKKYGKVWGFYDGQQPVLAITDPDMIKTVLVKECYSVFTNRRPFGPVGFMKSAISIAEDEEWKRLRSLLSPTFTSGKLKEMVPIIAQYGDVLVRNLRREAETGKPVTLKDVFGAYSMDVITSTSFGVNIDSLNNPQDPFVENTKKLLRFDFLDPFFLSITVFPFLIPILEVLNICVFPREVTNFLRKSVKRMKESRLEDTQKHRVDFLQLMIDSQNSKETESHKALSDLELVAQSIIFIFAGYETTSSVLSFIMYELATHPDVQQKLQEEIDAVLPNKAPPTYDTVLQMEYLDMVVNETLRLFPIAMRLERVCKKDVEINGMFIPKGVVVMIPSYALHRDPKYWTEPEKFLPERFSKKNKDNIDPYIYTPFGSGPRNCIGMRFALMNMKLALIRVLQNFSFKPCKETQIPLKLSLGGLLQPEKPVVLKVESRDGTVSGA

With `COc1cc2ncnc(Nc3cccc(Cl)c3F)c2cc1OCCON1CCN(C)CC1` [Compound 15, N-(3-chloro-2-fluorophenyl)-7-methoxy-6-(2-((4-methylpiperazin-1-yl)oxy)ethoxy)quinazolin-4-amine] the IC50 at 5 min (CYP3A4) was > 30 µM, the “adverse events or signs of toxicity” value [1] was “No adverse events or signs of toxicity” and the Kp,uu (unbound brain-to-unbound plasma partition coefficient) [2] was 0.33.
